Measured values taken from US20020111340A1, “Aminoalkoxybiphenylcarboxamides as histamine-3 receptor ligands and their therapeutic applications” (priority 2000, published 2002).

Molecular target: T1, histamine-3 receptor (Rattus norvegicus, UniProt Q9QYN8)
T1 construct: Rat cortical membranes (12 mg wet weight/tube) were incubated with; from tissue; host or cells: male Sprague-Dawley rat brain cortex membranes
Experiment: Histamine-3 receptor binding, displacement of (3H)-N-α-methylhistamine from rat cortical membranes
Conditions: male Sprague-Dawley rat brain cortical membranes; (3H)-N-α-methylhistamine ~0.6 nM; 30 minutes at 25° C.; Cheng-Prusoff
Method: Briefly, male Sprague-Dawley rat brain cortices were homogenized (1 g tissue/10 mL buffer) in 50 mM Tris-HCl/5 mM EDTA containing protease inhibitor cocktail (Calbiochem) using a polytron set at 20,500 rpm. Homogenates were centrifuged for 20 minutes at 40,000× g. The supernatant was decanted, and pellets were weighed. The pellet was resuspended by polytron homogenization in 40 mL of 50 mM Tris-HCl/5 mM EDTA with protease inhibitors and centrifuged for 20 minutes at 40,000× g. […] Rat cortical membranes (12 mg wet weight/tube) were incubated with (^3H)-N-α-methylhistamine (˜0.6 nM) with or without H3 receptor antagonists in a total incubation volume of 0.5 mL of 50 mM Tris-HCl/5 mM EDTA (pH 7.7). Test compounds were dissolved in DMSO to provide a 20 mM solution, serially diluted and then added to the incubation mixtures prior to initiating the incubation assay by addition of the membranes. Thioperamide (3 μM) was used to determine nonspecific binding. Binding incubations were conducted for 30 minutes at 25° C. and terminated by addition of 2 mL of ice cold 50 mM Tris-HCl (pH 7.7) and filtration through 0.3% polyethylenimine-soaked Unifilter plates (Packard). These filters were washed 4 additional times with 2 mL of ice-cold 50 mM Tris-HCl and dried for 1 hour. Radioactivity was determined using liquid scintillation counting techniques. Results were analyzed by Hill transformation and Ki values were determined using the Cheng-Prusoff equation.

T1 sequence (Q9QYN8 whole entry): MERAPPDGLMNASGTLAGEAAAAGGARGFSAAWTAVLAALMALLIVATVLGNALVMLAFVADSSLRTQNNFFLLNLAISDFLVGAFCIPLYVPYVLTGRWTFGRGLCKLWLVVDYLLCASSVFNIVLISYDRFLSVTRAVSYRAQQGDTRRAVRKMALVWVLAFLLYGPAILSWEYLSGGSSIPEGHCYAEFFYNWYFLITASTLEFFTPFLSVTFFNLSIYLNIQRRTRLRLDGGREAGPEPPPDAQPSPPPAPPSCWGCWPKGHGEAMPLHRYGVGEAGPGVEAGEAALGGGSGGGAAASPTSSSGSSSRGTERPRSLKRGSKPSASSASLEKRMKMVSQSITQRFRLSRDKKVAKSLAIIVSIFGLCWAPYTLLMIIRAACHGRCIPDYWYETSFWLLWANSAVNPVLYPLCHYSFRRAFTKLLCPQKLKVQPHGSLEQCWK

| Compound | Ki |
| --- | --- |
| O=C(c1ccc(-c2ccc(OCCCN3CCC[C@@H]3CO)cc2)cc1)N1CCCC1 [Example 13, [(2R)-1-(3-{[4′-(1-pyrrolidinylcarbonyl)[1,1′-biphenyl]-4-yl]oxy}propyl)pyrrolidinyl]methanol] | 80 nM |
| CC1CCCN1C(=O)c1ccc(-c2ccc(OCCCN3[C@H](C)CC[C@H]3C)cc2)cc1 (stereo partly drawn) [Example 3, (2R,5R)-2,5-dimethyl-1-[3-({4′-[(2-methyl-1-pyrrolidinyl)carbonyl][1,1′-biphenyl]-4-yl}oxy)propyl]pyrrolidine] | 1 nM |
| C[C@@H]1CCC[C@H](C)N1CCCOc1ccc(-c2ccc(C(=O)N3CCCC3)cc2)cc1 [Example 15, (2R,6S)-2,6-dimethyl-1-(3-{[4′-(1-pyrrolidinylcarbonyl)[1,1′-biphenyl]-4-yl]oxy}propyl)piperidine] | 7.18 nM |
| CC(C)NC(=O)c1ccc(-c2ccc(OCCCN3[C@H](C)CC[C@H]3C)cc2)cc1 [Example 1, 4′-{3-[(2R,5R)-2,5-dimethylpyrrolidinyl]propoxy}-N-isopropyl[1,1′-biphenyl]-4-carboxamide] | 2.84 nM |
| CC1CCN(C(=O)c2ccc(-c3ccc(OCCCN4[C@H](C)CC[C@H]4C)cc3)cc2)CC1 [Example 9, 1-[(4′-{3-[(2R,5R)-2,5-dimethylpyrrolidinyl]propoxy}[1,1′-biphenyl]-4-yl)carbonyl]-4-methylpiperidine] | 2.63 nM |
| CC1CCN(CCCOc2ccc(-c3ccc(C(=O)N4[C@H](C)CC[C@H]4C)cc3)cc2)CC1 [Example 7, 1-{3-[(4′-{[(2R,5R)-2,5-dimethylpyrrolidinyl]carbonyl}[1,1′-biphenyl]-4-yl)oxy]propyl}-4-methylpiperidine] | 3.66 nM |
| O=C(c1ccc(-c2ccc(OCCCN3CCC[C@H]3CO)cc2)cc1)N1CCCC1 [Example 14, [(2S)-1-(3-{[4′-(1-pyrrolidinylcarbonyl)[1,1′-biphenyl]-4-yl]oxy}propyl)pyrrolidinyl]methanol] | 6.07 nM |
| CCN(CC)CCCOc1ccc(-c2ccc(C(=O)N3[C@H](C)CC[C@H]3C)cc2)cc1 [Example 5, 3-[(4′-{[(2R,5R)-2,5-dimethylpyrrolidinyl]carbonyl}[1,1′-biphenyl]-4-yl)oxy]-N,N-diethyl-1-propanamine] | 13.8 nM |
| CC(C)NCCCOc1ccc(-c2ccc(C(=O)N3[C@H](C)CC[C@H]3C)cc2)cc1 [Example 4, 3-[(4′-{[(2R,5R)-2,5-dimethylpyrrolidinyl]carbonyl}[1,1′-biphenyl]-4-yl)oxy]-N-isopropyl-1-propanamine] | 507 nM |
| C[C@H](c1ccccc1)N(C)CCCOc1ccc(-c2ccc(C(=O)N3CCCC3)cc2)cc1 [Example 11, N-methyl-N-[(1R)-1-phenylethyl]-N-(3-{[4′-(1-pyrrolidinylcarbonyl)[1,1′-biphenyl]-4-yl]oxy}propyl)amine] | 363 nM |
| CN(CCCOc1ccc(-c2ccc(C(=O)N3CCCC3)cc2)cc1)[C@@H]1CCN(Cc2ccccc2)C1 [Example 12, N-[(3R)-1-benzylpyrrolidinyl]-N-methyl-N-(3-{[4′-(1-pyrrolidinylcarbonyl)[1,1′-biphenyl]-4-yl]oxy}propyl)amine] | 384 nM |
| O=C(c1ccc(-c2ccc(OCCCN3CCC[C@@H](O)C3)cc2)cc1)N1CCCC1 [Example 16, (3R)-1-(3-{[4′-(1-pyrrolidinylcarbonyl)[1,1′-biphenyl]-4-yl]oxy}propyl)-3-piperidinol] | 71.5 nM |
| C[C@@H]1CC[C@@H](C)N1C(=O)c1ccc(-c2ccc(OCCCN3CCOCC3)cc2)cc1 [Example 8, 4-{3-[(4′-{[(2R,5R)-2,5-dimethylpyrrolidinyl]carbonyl}[1,1′-biphenyl]-4-yl)oxy]propyl}morpholine] | 114 nM |
